Laboratory results published in patent publication US8574563B2 (Bristol-Myers Squibb Company, priority 2006, dated 2013).

System: HCV 1b-377-neo replicon cells
Test: HCV replicon assay, HCV 1b-377-neo replicon cells (1b FRET)
Assay type: cell-based, Hepatitis C virus genotype 1b
Details: HCV 1b-377-neo replicon cells; HCV 1b genotype; read-out: EC50 range against HCV 1b (Table 2, Range)
Outline: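 Compounds tested in HCV genotype 1b-377-neo replicon cells with a FRET read-out. Cells resistant to a reference NS5A inhibitor through a Y2065H NS5A mutation were run alongside wild-type cells.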

Structure (SMILES) | EC50
O=C(Cc1ccccc1)N1CCC[C@H]1c1ncc(-c2ccc(-c3ccc(-c4cnc([C@@H]5CCCN5C(=O)Cc5ccccc5)[nH]4)cc3)cc2)[nH]1 [Example 7, 5,5′-(4,4′-biphenyldiyl)bis(2-((2)S-1-(phenylacetyl)-2-pyrrolidinyl)-1H-imidazole)] | 0.001 to 0.999 nM

Same assay, conditions: Hepatitis C virus, HCV 1b-377-neo replicon cells; HCV 1b genotype; read-out: EC50 range against HCV 1b (Table 2, Range)

Structure (SMILES) | EC50
COC(=O)N[C@H](C(=O)N1CC[C@@H](O)[C@H]1c1ncc(-c2ccc(-c3ccc(-c4cnc([C@@H]5CCCN5C(=O)[C@@H](NC(=O)OC)C(C)C)[nH]4)cc3)cc2)[nH]1)C(C)C [OL-21, methyl ((1S)-1-(((2R)-3-hydroxy-2-(4-(4′-(2-((2S)-1-((2S)-2-((methoxycarbonyl)amino)-3-methylbutanoyl)-2-pyrrolidinyl)-1H-imidazol-4-yl)-4-biphenylyl)-1H-imidazol-2-yl)-1-pyrrolidinyl)carbonyl)-2-methylpropyl)carbamate] | 0.001 to 0.999 nM
CCNC(=O)NCc1ccc(C[C@H](NC(=O)OC)C(=O)N2CCC[C@H]2c2ncc(-c3ccc(-c4ccc(-c5cnc([C@@H]6CCCN6C(=O)[C@@H](NC(=O)OC)C(C)C)[nH]5)cc4)cc3)[nH]2)cc1 [cj-115, methyl ((1S)-1-(4-(((ethylcarbamoyl)amino)methyl)benzyl)-2-((2S)-2-(5-(4′-(2-((2S)-1-((2S)-2-((methoxycarbonyl)amino)-3-methylbutanoyl)-2-pyrrolidinyl)-1H-imidazol-5-yl)-4-biphenylyl)-1H-imidazol-2-yl)-1-pyrrolidinyl)-2-oxoethyl)carbamate] | 0.001 to 0.999 nM
CCN(C1CC1)[C@@H](C(=O)N1CCC[C@H]1c1ncc(-c2ccc(-c3ccc(-c4cnc([C@@H]5CCCN5C(=O)[C@@H](c5ccccc5)N(CC)C5CC5)[nH]4)cc3)cc2)[nH]1)c1ccccc1 [Example M3, N,N′-(4,4′-biphenyldiylbis(1H-imidazole-5,2-diyl(2S)-2,1-pyrrolidinediyl((1R)-2-oxo-1-phenyl-2,1-ethanediyl)))bis(N-ethylcyclopropanamine)] | 1 to 99 nM
COC(=O)N[C@@H](C(=O)N1CCC[C@H]1c1ncc(-c2ccc(-c3ccc(-c4cnc([C@@H]5CCCN5C(=O)[C@H](NC(=O)OC)c5ccccc5)[nH]4)nc3)cc2)[nH]1)c1ccccc1 [Example 147, methyl ((1R)-2-((2S)-2-(5-(5-(4-(2-((2S)-1-((2R)-2-((methoxycarbonyl)amino)-2-phenylacetyl)-2-pyrrolidinyl)-1H-imidazol-5-yl)phenyl)-2-pyridinyl)-1H-imidazol-2-yl)-1-pyrrolidinyl)-2-oxo-1-phenylethyl)carbamate] | 0.001 to 0.999 nM
Cc1cc(-c2cnc([C@@H]3CCCN3C(=O)[C@@H](c3ccccc3)N(C)C)[nH]2)ccc1-c1ccc(-c2cnc([C@@H]3CCCN3C(=O)[C@@H](c3ccccc3)N(C)C)[nH]2)cc1 [Example 123, (1R,1′R)-2,2′-((2-methyl-4,4′-biphenyldiyl)bis(1H-imidazole-5,2-diyl(2S)-2,1-pyrrolidinediyl))bis(N,N-dimethyl-2-oxo-1-phenylethanamine)] | 0.001 to 0.999 nM
CN(C)[C@@H](C(=O)N1CCC[C@H]1c1ncc(-c2ccc(-c3ccc(-c4cnc([C@@H]5CCCN5C(=O)[C@@H](c5ccccc5)N(C)C)[nH]4)nn3)cc2)[nH]1)c1ccccc1 [Example 152j-9, (1R)-2-((2S)-2-(5-(6-(4-(2-((2S)-1-((2R)-2-(dimethylamino)-2-phenylacetyl)-2-pyrrolidinyl)-1H-imidazol-5-yl)phenyl)-3-pyridazinyl)-1H-imidazol-2-yl)-1-pyrrolidinyl)-N,N-dimethyl-2-oxo-1-phenylethanamine] | 1 to 99 nM
COC(=O)N[C@@H](C(=O)N1CCC[C@H]1c1ncc(-c2ccc(-c3ccc(-c4cnc([C@@H]5CCCN5C(=O)Cc5cccc(OC)c5)[nH]4)cc3)cc2)[nH]1)c1ccccc1 [Example 84-64, methyl ((1R)-2-((2S)-2-(5-(4′-(2-((2S)-1-((3-methoxyphenyl)acetyl)-2-pyrrolidinyl)-1H-imidazol-5-yl)-4-biphenylyl)-1H-imidazol-2-yl)-1-pyrrolidinyl)-2-oxo-1-phenylethyl)carbamate] | 0.001 to 0.999 nM
COC(=O)N[C@H](C(=O)N1CCC[C@H]1c1ncc(-c2ccc(-c3ccc(-c4cnc([C@@H]5CCCN5C(=O)[C@@H](Nc5ncccn5)C(C)C)[nH]4)cc3)cc2)[nH]1)C(C)C [cj-11, methyl ((1S)-2-methyl-1-(((2S)-2-(5-(4′-(2-((2S)-1-(N-2-pyrimidinyl-L-valyl)-2-pyrrolidinyl)-1H-imidazol-5-yl)-4-biphenylyl)-1H-imidazol-2-yl)-1-pyrrolidinyl)carbonyl)propyl)carbamate] | 0.001 to 0.999 nM
O=C(OCc1ccccc1)c1nc([C@@H]2CCCN2C(=O)[C@@H](c2ccccc2)N2CCCCC2)[nH]c1-c1ccc(-c2ccc(-c3cnc([C@@H]4CCCN4C(=O)[C@@H](c4ccccc4)N4CCCCC4)[nH]3)cc2)cc1 [Example J23, benzyl 2-((2S)-1-((2R)-2-phenyl-2-(1-piperidinyl)acetyl)-2-pyrrolidinyl)-5-(4′-(2-((2S)-1-((2R)-2-phenyl-2-(1-piperidinyl)acetyl)-2-pyrrolidinyl)-1H-imidazol-5-yl)-4-biphenylyl)-1H-imidazole-4-carboxylate] | 0.001 to 0.999 nM
COC(=O)N[C@@H](Cc1c[nH]nn1)C(=O)N1CCC[C@H]1c1ncc(-c2ccc(-c3ccc(-c4cnc([C@@H]5CCCN5C(=O)[C@@H](NC(=O)OC)[C@@H](C)OC)[nH]4)cc3)cc2)[nH]1 [cj-35, methyl ((1S)-2-((2S)-2-(5-(4′-(2-((2S)-1-((2S,3R)-3-methoxy-2-((methoxycarbonyl)amino)butanoyl)-2-pyrrolidinyl)-1H-imidazol-5-yl)-4-biphenylyl)-1H-imidazol-2-yl)-1-pyrrolidinyl)-2-oxo-1-(1H-1,2,3-triazol-4-ylmethyl)ethyl)carbamate] | 1 to 99 nM
COC(=O)N[C@@H](C(=O)N(C)[C@@H](C)c1ncc(-c2ccc(-c3ncc(-c4cnc([C@@H]5CCCN5C(=O)[C@@H](c5ccccc5)N5CCCCC5)[nH]4)cn3)cc2)[nH]1)c1ccccc1 [Example 152l-1, methyl ((1R)-2-(methyl((1S)-1-(4-(4-(5-(2-((2S)-1-((2R)-2-phenyl-2-(1-piperidinyl)acetyl)-2-pyrrolidinyl)-1H-imidazol-5-yl)-2-pyrimidinyl)phenyl)-1H-imidazol-2-yl)ethyl)amino)-2-oxo-1-phenylethyl)carbamate] | 0.001 to 0.999 nM
CCN(CC)[C@@H](C(=O)N1CCC[C@H]1c1ncc(-c2ccc(-c3ccc(-c4cnc([C@@H]5CCCN5C(=O)[C@H](C)NC(=O)OC)[nH]4)c(F)c3)cc2)[nH]1)c1ccccc1 [Example D36, methyl ((1S)-2-((2S)-2-(5-(4′-(2-((2S)-1-((2R)-2-(diethylamino)-2-phenylacetyl)-2-pyrrolidinyl)-1H-imidazol-5-yl)-3-fluoro-4-biphenylyl)-1H-imidazol-2-yl)-1-pyrrolidinyl)-1-methyl-2-oxoethyl)carbamate] | 0.001 to 0.999 nM
C[C@@H](c1ncc(-c2ccc(-c3ccc(-c4cnc([C@@H]5CCCN5C(=O)[C@@H](c5ccccc5)N(C)C)[nH]4)cc3)cc2)[nH]1)N(C)C(=O)[C@@H](c1ccccc1)N(C)C [Example 24-18-5, (2R)-2-(dimethylamino)-N-((1S)-1-(5-(4′-(2-((2S)-1-((2R)-2-(dimethylamino)-2-phenylacetyl)-2-pyrrolidinyl)-1H-imidazol-5-yl)-4-biphenylyl)-1H-imidazol-2-yl)ethyl)-N-methyl-2-phenylacetamide] | 0.001 to 0.999 nM
